The test system of this assay is Mus musculus. Put plainly: Analgesic activity against acetic acid-induced Kunming writhing mouse model assessed as inhibition of writhing at 10 mg/kg, sc pretreated with compound for 15 mins followed by acetic acid addition and measured after 15 mins relative to control. Type of assay: functional. The note with it: 0.5 h, time 30 min.

For orientation: inhibition in vivo means how much of the control response was suppressed. `CCN1C[C@]2(OC(=O)c3ccccc3NC(=O)c3cccc(C#N)c3)CC[C@H](OC)[C@]34C1[C@H](C[C@H]23)[C@@]1(O)C[C@H](OC)[C@H]2C[C@@H]4[C@]1(O)[C@H]2OC`: the inhibition in vivo at 10 mg/kg is 10.7%.

On to `CCN1C[C@]2(OC(=O)c3ccccc3NC(=O)c3ccccc3F)CC[C@H](OC)[C@]34C1[C@H](C[C@H]23)[C@@]1(O)C[C@H](OC)[C@H]2C[C@@H]4[C@]1(O)[C@H]2OC`, for which the inhibition in vivo at 10 mg/kg amounted to 17.7%.

On to `CCN1C[C@]2(OC(=O)c3ccccc3NC(=O)c3ccc(Br)cc3)CC[C@H](OC)[C@]34C1[C@H](C[C@H]23)[C@@]1(O)C[C@H](OC)[C@H]2C[C@@H]4[C@]1(O)[C@H]2OC`, for which the inhibition in vivo at 10 mg/kg was determined as 39.4%.

Regarding `CCN1C[C@]2(OC(=O)c3ccccc3NC(=O)c3ccccc3Br)CC[C@H](OC)[C@]34C1[C@H](C[C@H]23)[C@@]1(O)C[C@H](OC)[C@H]2C[C@@H]4[C@]1(O)[C@H]2OC`, the inhibition in vivo at 10 mg/kg came to 0%.

Turning to `CCN1C[C@]2(OC(=O)c3ccccc3NC(=O)c3cnc(Cl)cn3)CC[C@H](OC)[C@]34C1[C@H](C[C@H]23)[C@@]1(O)C[C@H](OC)[C@H]2C[C@@H]4[C@]1(O)[C@H]2OC`, the inhibition in vivo at 10 mg/kg turned out to be 31.5%.

For `CCN1C[C@]2(OC(=O)c3ccccc3NC(=O)C3CCCC3)CC[C@H](OC)[C@]34C1[C@H](C[C@H]23)[C@@]1(O)C[C@H](OC)[C@H]2C[C@@H]4[C@]1(O)[C@H]2OC`, the inhibition in vivo at 10 mg/kg stood at 56.9%.

Consider `CCN1C[C@]2(OC(=O)c3ccccc3NC(=O)c3ccc(OC(F)(F)F)cc3)CC[C@H](OC)[C@]34C1[C@H](C[C@H]23)[C@@]1(O)C[C@H](OC)[C@H]2C[C@@H]4[C@]1(O)[C@H]2OC`, for which the inhibition in vivo at 10 mg/kg was 10%.

Regarding `CCN1C[C@]2(OC(=O)c3ccccc3NC(=O)c3cccc(Cl)c3)CC[C@H](OC)[C@]34C1[C@H](C[C@H]23)[C@@]1(O)C[C@H](OC)[C@H]2C[C@@H]4[C@]1(O)[C@H]2OC`, the inhibition in vivo at 10 mg/kg is 17.5%.

As for `CCN1C[C@]2(OC(=O)c3ccccc3NC(=O)c3ccc(Cl)cc3Cl)CC[C@H](OC)[C@]34C1[C@H](C[C@H]23)[C@@]1(O)C[C@H](OC)[C@H]2C[C@@H]4[C@]1(O)[C@H]2OC`, the inhibition in vivo at 10 mg/kg stood at 31.2%.

Regarding `CCN1C[C@]2(OC(=O)c3ccccc3NC(=O)c3ccccc3Cl)CC[C@H](OC)[C@]34C1[C@H](C[C@H]23)[C@@]1(O)C[C@H](OC)[C@H]2C[C@@H]4[C@]1(O)[C@H]2OC`, the inhibition in vivo at 10 mg/kg was determined as 4.4%.

For `CCN1C[C@]2(OC(=O)c3ccccc3NC(=O)c3ccccc3)CC[C@H](OC)[C@]34C1[C@H](C[C@H]23)[C@@]1(O)C[C@H](OC)[C@H]2C[C@@H]4[C@]1(O)[C@H]2OC`, the inhibition in vivo at 10 mg/kg worked out at 0%.

As for `CCCCCCC(=O)Nc1ccccc1C(=O)O[C@@]12CC[C@H](OC)[C@]34C([C@H](C[C@H]13)[C@@]1(O)C[C@H](OC)[C@H]3C[C@@H]4[C@]1(O)[C@H]3OC)N(CC)C2`, the inhibition in vivo at 10 mg/kg came out at 54.2%.

`CCN1C[C@]2(OC(=O)c3ccccc3NC(=O)c3ccc(Br)s3)CC[C@H](OC)[C@]34C1[C@H](C[C@H]23)[C@@]1(O)C[C@H](OC)[C@H]2C[C@@H]4[C@]1(O)[C@H]2OC`: the inhibition in vivo at 10 mg/kg came out at 12.8%.

With `CCN1C[C@]2(OC(=O)c3ccccc3NC(=O)c3ccc(Cl)cc3)CC[C@H](OC)[C@]34C1[C@H](C[C@H]23)[C@@]1(O)C[C@H](OC)[C@H]2C[C@@H]4[C@]1(O)[C@H]2OC`, the inhibition in vivo at 10 mg/kg came to 31.6%.

Regarding `CCN1C[C@]2(OC(=O)c3ccccc3NC(=O)c3cccc(Br)c3)CC[C@H](OC)[C@]34C1[C@H](C[C@H]23)[C@@]1(O)C[C@H](OC)[C@H]2C[C@@H]4[C@]1(O)[C@H]2OC`, the inhibition in vivo at 10 mg/kg was 3.4%.

On to `CCN1C[C@]2(OC(=O)c3ccccc3NC(=O)C3CCCO3)CC[C@H](OC)[C@]34C1[C@H](C[C@H]23)[C@@]1(O)C[C@H](OC)[C@H]2C[C@@H]4[C@]1(O)[C@H]2OC` (stereo partly drawn), for which the inhibition in vivo at 10 mg/kg came to 21.8%.

`CCN1C[C@]2(OC(=O)c3ccccc3NC(=O)c3ccc([N+](=O)[O-])cc3)CC[C@H](OC)[C@]34C1[C@H](C[C@H]23)[C@@]1(O)C[C@H](OC)[C@H]2C[C@@H]4[C@]1(O)[C@H]2OC`: the inhibition in vivo at 10 mg/kg turned out to be 27.2%.

As for `CCN1C[C@]2(OC(=O)c3ccccc3NC(=O)C3CCCCC3)CC[C@H](OC)[C@]34C1[C@H](C[C@H]23)[C@@]1(O)C[C@H](OC)[C@H]2C[C@@H]4[C@]1(O)[C@H]2OC`, the inhibition in vivo at 10 mg/kg was 34.5%.

As to `CCN1C[C@]2(OC(=O)c3ccccc3NC(=O)c3ccc(Cl)c(Cl)c3)CC[C@H](OC)[C@]34C1[C@H](C[C@H]23)[C@@]1(O)C[C@H](OC)[C@H]2C[C@@H]4[C@]1(O)[C@H]2OC`, the inhibition in vivo at 10 mg/kg was 10.4%.

For the compound `CCc1ccc(C(=O)Nc2ccccc2C(=O)O[C@@]23CC[C@H](OC)[C@]45C([C@H](C[C@H]24)[C@@]2(O)C[C@H](OC)[C@H]4C[C@@H]5[C@]2(O)[C@H]4OC)N(CC)C3)cc1`, the inhibition in vivo at 10 mg/kg was 26.7%.

As to `CCN1C[C@]2(OC(=O)c3ccccc3NC(=O)c3ccc(C#N)cc3)CC[C@H](OC)[C@]34C1[C@H](C[C@H]23)[C@@]1(O)C[C@H](OC)[C@H]2C[C@@H]4[C@]1(O)[C@H]2OC`, the inhibition in vivo at 10 mg/kg came out at 31.5%.

For the compound `CCN1C[C@]2(OC(=O)c3ccccc3NC(=O)c3ccc(Cl)s3)CC[C@H](OC)[C@]34C1[C@H](C[C@H]23)[C@@]1(O)C[C@H](OC)[C@H]2C[C@@H]4[C@]1(O)[C@H]2OC`, the inhibition in vivo at 10 mg/kg worked out at 27.8%.

For the compound `CCN1C[C@]2(OC(=O)c3ccccc3NC(=O)C3CCOC3)CC[C@H](OC)[C@]34C1[C@H](C[C@H]23)[C@@]1(O)C[C@H](OC)[C@H]2C[C@@H]4[C@]1(O)[C@H]2OC` (stereo partly drawn), the inhibition in vivo at 10 mg/kg amounted to 34%.

On to `CCN1C[C@]2(OC(=O)c3ccccc3NC(=O)c3ccc(S(C)(=O)=O)cc3)CC[C@H](OC)[C@]34C1[C@H](C[C@H]23)[C@@]1(O)C[C@H](OC)[C@H]2C[C@@H]4[C@]1(O)[C@H]2OC`, for which the inhibition in vivo at 10 mg/kg turned out to be 8.4%.

`CCN1C[C@]2(OC(=O)c3ccccc3NC(=O)c3ccc(C(C)C)cc3)CC[C@H](OC)[C@]34C1[C@H](C[C@H]23)[C@@]1(O)C[C@H](OC)[C@H]2C[C@@H]4[C@]1(O)[C@H]2OC`: the inhibition in vivo at 10 mg/kg amounted to 21%.

Take `CCN1C[C@]2(OC(=O)c3ccccc3NC(=O)c3ccc(C(=O)OC)cc3)CC[C@H](OC)[C@]34C1[C@H](C[C@H]23)[C@@]1(O)C[C@H](OC)[C@H]2C[C@@H]4[C@]1(O)[C@H]2OC`: the inhibition in vivo at 10 mg/kg is 36.4%.

As for `CCN1C[C@]2(OC(=O)c3ccccc3NC(=O)c3cccc(F)c3)CC[C@H](OC)[C@]34C1[C@H](C[C@H]23)[C@@]1(O)C[C@H](OC)[C@H]2C[C@@H]4[C@]1(O)[C@H]2OC`, the inhibition in vivo at 10 mg/kg was 27.5%.

Consider `CCN1C[C@]2(OC(=O)c3ccccc3NC(=O)c3ccc(I)cc3)CC[C@H](OC)[C@]34C1[C@H](C[C@H]23)[C@@]1(O)C[C@H](OC)[C@H]2C[C@@H]4[C@]1(O)[C@H]2OC`, for which the inhibition in vivo at 10 mg/kg amounted to 31.1%.
